Results reported in patent US20230365537A1, “POLO LIKE KINASE 4 INHIBITORS” (ORIC Pharmaceuticals, Inc., priority 2021, published 2023).
Each block holds one compound with its values, some of them ahead of it.

Experiments:
[1] = target: human recombinant PLK4 (Homo sapiens (Human), UniProt O00444); test: PLK4 Biochemical Assay (ADP-Glo); conditions: 0.5 nM PLK4, 8.0 µM ATP, 4.7 µM MBP, 6 hours at RT
How it was run: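 Recombinant human PLK4 (added at 1.0 nM) was preincubated 15 min at RT with compound in 50 mM HEPES pH 7.5, 10 mM MgCl2, 1 mM EGTA, 1 mM DTT, 0.01% Brij-35, 0.01% BSA. ADP formed was detected by ADP-Glo luminescence (40 min ATP depletion, 30 min detection). IC50 came from a four-parameter fit.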

[2] = test system: CHP-134 cells; test: CHP134 CellTiter-Glo (CTG) Assay; type: cell-based; conditions: Homo sapiens, 5 days, viable cells by CellTiter-Glo
Method: Cells were seeded (200 cells/well) in 384-well plates for 16 hours. On day two, nine serial 1:3 compound dilutions were made in DMSO in a 96-well plate. The compounds were then further diluted into growth media using a BRAVO robot (Agilent, Santa Clara, CA). The diluted compounds were then added to quadruplicate wells in the 384-well cell plate and incubated at 37° C. and 5% CO2. After 5 days, relative numbers of viable cells were measured by luminescence using CellTiter-Glo® (Promega) according to the manufacturer’s instructions and read on a SPARK Multimode Microplate Reader (Tecan, Mannedorf Switzerland). The IC50 calculations for the values reported in Table 2 were carried out using Prism 6.0 software (GraphPad, San Diego).

[3] = target: human recombinant Aurora A (Homo sapiens (Human), UniProt O14965); test: Aurora A Kinase Biochemical Assay (ADP-Glo); conditions: ratio of Aurora A IC50 to PLK4 IC50 (selectivity)
[4] = target: human recombinant Aurora B (Homo sapiens (Human), UniProt Q96GD4); test: Aurora B Kinase Biochemical Assay (ADP-Glo); conditions: ratio of Aurora B IC50 to PLK4 IC50 (selectivity)
How it was run: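 Recombinant human Aurora B (20 nM in pH 7.5 HEPES buffer with MgCl2, EGTA, DTT, Brij-35, BSA) preincubated with compound 15 min at RT. ADP formed quantified by ADP-Glo luminescence after ATP depletion (40 min) and detection (30 min). IC50 from four-parameter non-linear regression.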

Sequence of human recombinant PLK4 (O00444 whole entry): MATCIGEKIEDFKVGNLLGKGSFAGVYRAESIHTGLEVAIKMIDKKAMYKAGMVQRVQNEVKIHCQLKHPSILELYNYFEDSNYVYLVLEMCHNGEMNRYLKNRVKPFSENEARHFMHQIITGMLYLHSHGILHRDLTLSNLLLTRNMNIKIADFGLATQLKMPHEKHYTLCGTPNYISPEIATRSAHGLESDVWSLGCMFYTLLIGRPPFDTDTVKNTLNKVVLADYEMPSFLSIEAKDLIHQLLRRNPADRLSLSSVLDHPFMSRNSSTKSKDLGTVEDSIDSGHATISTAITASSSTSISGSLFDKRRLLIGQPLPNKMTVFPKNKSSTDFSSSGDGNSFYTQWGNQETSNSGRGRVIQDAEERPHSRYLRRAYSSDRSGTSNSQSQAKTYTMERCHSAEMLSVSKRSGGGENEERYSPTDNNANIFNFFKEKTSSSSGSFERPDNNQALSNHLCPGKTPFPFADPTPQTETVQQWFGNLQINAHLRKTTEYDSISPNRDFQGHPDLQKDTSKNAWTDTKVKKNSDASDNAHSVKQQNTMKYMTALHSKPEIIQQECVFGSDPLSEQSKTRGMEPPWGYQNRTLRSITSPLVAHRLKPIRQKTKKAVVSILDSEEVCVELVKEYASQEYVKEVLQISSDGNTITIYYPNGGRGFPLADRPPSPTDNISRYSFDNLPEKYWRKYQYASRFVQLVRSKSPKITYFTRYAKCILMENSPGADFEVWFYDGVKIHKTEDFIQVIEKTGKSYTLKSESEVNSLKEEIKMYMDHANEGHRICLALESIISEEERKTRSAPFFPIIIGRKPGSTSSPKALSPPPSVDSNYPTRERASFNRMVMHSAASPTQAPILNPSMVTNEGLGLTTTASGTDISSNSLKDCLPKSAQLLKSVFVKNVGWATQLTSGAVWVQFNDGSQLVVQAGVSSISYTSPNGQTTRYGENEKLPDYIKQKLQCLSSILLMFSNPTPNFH
Sequence of human recombinant Aurora A (O14965 whole entry): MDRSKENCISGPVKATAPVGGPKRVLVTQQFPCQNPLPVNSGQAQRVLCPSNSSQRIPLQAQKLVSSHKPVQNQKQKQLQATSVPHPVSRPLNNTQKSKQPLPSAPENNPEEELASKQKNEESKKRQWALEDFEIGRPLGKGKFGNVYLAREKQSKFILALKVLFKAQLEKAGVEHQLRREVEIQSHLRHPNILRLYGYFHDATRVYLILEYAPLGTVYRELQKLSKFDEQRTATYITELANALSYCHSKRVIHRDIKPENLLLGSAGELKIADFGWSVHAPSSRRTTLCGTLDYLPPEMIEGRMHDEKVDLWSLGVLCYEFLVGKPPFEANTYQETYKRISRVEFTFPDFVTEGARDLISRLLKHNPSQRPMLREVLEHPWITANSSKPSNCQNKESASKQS
Sequence of human recombinant Aurora B (Q96GD4 whole entry): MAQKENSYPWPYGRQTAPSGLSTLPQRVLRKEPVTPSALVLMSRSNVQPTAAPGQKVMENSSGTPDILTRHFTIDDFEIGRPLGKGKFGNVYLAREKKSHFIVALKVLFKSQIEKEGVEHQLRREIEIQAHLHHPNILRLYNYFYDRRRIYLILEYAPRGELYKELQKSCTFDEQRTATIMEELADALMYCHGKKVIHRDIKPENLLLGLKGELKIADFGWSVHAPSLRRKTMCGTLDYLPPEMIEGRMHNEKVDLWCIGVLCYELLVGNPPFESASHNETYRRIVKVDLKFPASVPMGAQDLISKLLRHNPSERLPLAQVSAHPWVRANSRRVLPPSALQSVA

SMILES: COc1ccc2c(c1)[C@]1(C[C@H]1c1ccc3c(Nc4nc(C)nc(N5CCS(=O)(=O)CC5)c4OC)n[nH]c3c1)C(=O)N2 [Example 57, 4-[5-methoxy-6-({6-[(1R,2S)-5′-methoxy-2′-oxo-1′,2′-dihydrospiro[cyclopropane-1,3′-indol]-2-yl]-1H-indazol-3-yl}amino)-2-methylpyrimidin-4-yl]-1λ6-thiomorpholine-1,1-dione]
IC50 [1]: 5.08 nM
IC50 ([2]; CHP-134, 120 h): 3960 nM
[Aurora A IC50 (nM)]/[PLK4 IC50 (nM)] [3]: 3527.559
[Aurora B IC50 (nM)]/[PLK4 IC50 (nM)] [4]: 831.2992

SMILES: COc1ccc2c(c1)[C@]1(C[C@H]1c1ccc3c(Nc4nc(C#N)nc(N5CCOCC5)c4OC)n[nH]c3c1)C(=O)N2 [Example 61, 5-methoxy-4-({6-[(1R,2S)-5′-methoxy-2′-oxo-1’,2′-dihydrospiro[cyclopropane-1,3′-indol]-2-yl]-1H-indazol-3-yl}amino)-6-(morpholin-4-yl)pyrimidme-2-carbonitrile]
IC50 [1]: 9.74 nM
IC50 ([2]; 120 h): 2380 nM
[Aurora A IC50 (nM)]/[PLK4 IC50 (nM)] [3]: 588.8148
[Aurora B IC50 (nM)]/[PLK4 IC50 (nM)] [4]: 955.0539

SMILES: COc1ccc2c(c1)[C@]1(C[C@H]1c1ccc3c(Nc4nc(C#N)nc(N5CCS(=O)(=O)CC5)c4OC)n[nH]c3c1)C(=O)N2 [Example 62, 4-(l,l-dioxidothiomorpholino)-5-methoxy-6-((6-((lR,2S)-5′-methoxy-2′-oxospiro[cyclopropane-1,3′-indolin]-2-yl)-1H-indazol-3-yl)amino)pyrimidine-2-carbonitrile]
IC50 [1]: 16.9 nM
IC50 ([2]; CHP-134, 120 h): 10000 nM
[Aurora A IC50 (nM)]/[PLK4 IC50 (nM)] [3]: 540.9225
[Aurora B IC50 (nM)]/[PLK4 IC50 (nM)] [4]: 946.7771

SMILES: COc1ccc2c(c1)[C@]1(C[C@H]1c1ccc3c(Nc4nc(C)nc(N5C[C@@H](C)O[C@@H](C)C5)c4OC)n[nH]c3c1)C(=O)N2 [Example 67, (1R,2S)-2-[3-({6-[(2R,6S)-2,6-dimethylmorpholin-4-yl]-5-methoxy-2-methylpyrimidin-4-yl}amino)-1H-indazol-6-yl]-5′-methoxyspiro[cyclopropane-1,3′-indol]-2′(1′H)-one]
IC50 [1]: 1.34 nM
IC50 ([2]; CHP-134, 120 h): 4390 nM
[Aurora A IC50 (nM)]/[PLK4 IC50 (nM)] [3]: 4976.155
[Aurora B IC50 (nM)]/[PLK4 IC50 (nM)] [4]: 499.9255

SMILES: COc1ccc2c(c1)[C@]1(C[C@H]1c1ccc3c(Nc4nc(CCO)nc(N5CCOCC5)c4OC)n[nH]c3c1)C(=O)N2 [Example 68, (1R,2S)-2-(3-{[2-(2-hydroxyethyl)-5-methoxy-6-(morpholin-4-yl)pyrimidin-4-yl]amino}-1H-indazol-6-yl)-5′-methoxyspiro[cyclopropane-1,3′-indol]-2′(1′H)-one]
IC50 [1]: 7.38 nM
IC50 ([2]; CHP-134, 120 h): 2480 nM
[Aurora A IC50 (nM)]/[PLK4 IC50 (nM)] [3]: 4761.518
[Aurora B IC50 (nM)]/[PLK4 IC50 (nM)] [4]: 1347.967

SMILES: COc1ccc2c(c1)[C@]1(C[C@H]1c1ccc3c(Nc4nc(C5CC5)nc(N5CCS(=O)(=O)CC5)c4Cl)n[nH]c3c1)C(=O)N2 [Example 70, 4-[5-chloro-2-cyclopropyl-6-({6-[(1R,2S)-5′-methoxy-2′-oxo-1′,2′-dihydrospiro[cyclopropan-1,3′-indol]-2-yl]-1H-indazol-3-yl}amino)pyrimidin-4-y1]-1λ6-thiomorpholine-1,1-dione]
IC50 [1]: 1.1 nM
IC50 ([2]; CHP-134, 120 h): 80.3 nM
[Aurora A IC50 (nM)]/[PLK4 IC50 (nM)] [3]: 1376.93
[Aurora B IC50 (nM)]/[PLK4 IC50 (nM)] [4]: 512.7157

SMILES: COc1ccc2c(c1)[C@]1(C[C@H]1c1ccc3c(Nc4nc(C5CC5)nc(N5CC(O)C5)c4Cl)n[nH]c3c1)C(=O)N2 [Example 76, (1R,2S)-2-(3-{[5-chloro-2-cyclopropyl-6-(3-hydroxyazetidin-1-yl)pyrimidin-4-yl]amino)-1H-indazol-6-yl)-5′-methoxyspiro[cyclopropane-1,3′-indol]-2′(1′H)-one]
IC50 [1]: 0.434 nM
IC50 ([2]; CHP-134, 120 h): 93.5 nM
[Aurora A IC50 (nM)]/[PLK4 IC50 (nM)] [3]: 3304.147
[Aurora B IC50 (nM)]/[PLK4 IC50 (nM)] [4]: 535.4839

SMILES: COc1ccc2c(c1)[C@]1(C[C@H]1c1ccc3c(Nc4nc(C5CC5)nc(N5C[C@@H](C)O[C@@H](C)C5)c4OC)n[nH]c3c1)C(=O)N2 [Example 77, (1R,2S)-2-[3-({2-cyclopropyl-6-[(2R,6S)-2,6-dimethylmorpholin-4-yl]-5-methoxypyrimidin-4-yl}amino)-1H-indazol-6-yl]-5′-methoxyspiro[cydopropane-1,3′-indol]-2′(1′H)-one]
IC50 [1]: 1.76 nM
IC50 ([2]; CHP-134, 120 h): 725 nM
[Aurora A IC50 (nM)]/[PLK4 IC50 (nM)] [3]: 6738.759
[Aurora B IC50 (nM)]/[PLK4 IC50 (nM)] [4]: 1577.689

Further lines, with some results ahead:

IC50 [1]: 33.2 nM
[Aurora A IC50 (nM)]/[PLK4 IC50 (nM)] [3]: 1504.212
[Aurora B IC50 (nM)]/[PLK4 IC50 (nM)] [4]: 117.2684
SMILES: COc1ccc2c(c1)[C@]1(C[C@H]1c1ccc3c(Nc4ncnc(N5CCS(=O)(=O)CC5)c4OC)n[nH]c3c1)C(=O)N2 [Example 54, (1R,2S)-2-(3-((6-(1,1-dioxidothiomorpholino)-5-methoxypyrimidin-4-yl)amino)-1H-indazol-6-yl)-5′-methoxyspiro[cydopropane-1,3′-indolin]-2′-one]
IC50 ([2]; CHP-134, 120 h): 10000 nM

IC50 [1]: 3.84 nM
[Aurora A IC50 (nM)]/[PLK4 IC50 (nM)] [3]: 1047.694
[Aurora B IC50 (nM)]/[PLK4 IC50 (nM)] [4]: 423.7686
SMILES: COc1ccc2c(c1)[C@]1(C[C@H]1c1ccc3c(Nc4nc(CCO)cnc4OC)n[nH]c3c1)C(=O)N2 [Example 56, (1R,2S)-2-(3-{[6-(2-hydroxyethyl)-3-methoxypyrazin-2-yl]amino}-1H-indazol-6-yl)-5′-methoxyspiro[cyclopropane-1,3′-indol]-2′(1′H)-one]
IC50 ([2]; CHP-134, 120 h): 2680 nM

IC50 [1]: 2.32 nM
[Aurora A IC50 (nM)]/[PLK4 IC50 (nM)] [3]: 1393.782
[Aurora B IC50 (nM)]/[PLK4 IC50 (nM)] [4]: 140.6736
SMILES: COc1ccc2c(c1)[C@]1(C[C@H]1c1ccc3c(Nc4nc(C)nc(N5CCS(=O)(=O)CC5)c4Cl)n[nH]c3c1)C(=O)N2 [Example 58, 4-[5-chloro-6-({6-[(1R,2S)-5′-methoxy-2′-oxo-1,2′-dihydrospiro[cyclopropane-1,3′-indol]-2-yl]-1H-indazol-3-yl}amino)-2-methylpyrimidin-4-yl]-1λ6-thiomorpholine-1,1-dione]
IC50 ([2]; CHP-134, 120 h): 157 nM

IC50 [1]: 2.98 nM
[Aurora A IC50 (nM)]/[PLK4 IC50 (nM)] [3]: 1785.978
[Aurora B IC50 (nM)]/[PLK4 IC50 (nM)] [4]: 480.7112
SMILES: COc1ccc2c(c1)[C@]1(C[C@H]1c1ccc3c(Nc4nc(C5CC5)nc(N5CCS(=O)(=O)CC5)c4OC)n[nH]c3c1)C(=O)N2 [Example 69, 4-[2-cyclopropyl-5-methoxy-6-({6-[(1R,2S)-5′-methoxy-2′-oxo-1’,2′-dihydrospiro[cyclopropane-1,3′-indol]-2-yl]-1H-indazol-3-yl}amino)pyrimidin-4-yl]-1λ6-thiomorpholine-1,1-dione]
IC50 ([2]; CHP-134, 120 h): 686 nM

IC50 [1]: 3.06 nM
[Aurora A IC50 (nM)]/[PLK4 IC50 (nM)] [3]: 420.9667
[Aurora B IC50 (nM)]/[PLK4 IC50 (nM)] [4]: 38.67
SMILES: COc1ccc2c(c1)[C@]1(C[C@H]1c1ccc3c(Nc4nc(C)cnc4OC)n[nH]c3c1)C(=O)N2 [Example 71, (1R,2S)-5′-methoxy-2-{3-[(3-methoxy-6-methylpyrazin-2-yl)amino]-1H-indazol-6-yl}spiro[cyclopropane-1,3′-indol]-2′(1′H)-one]
IC50 ([2]; CHP-134, 120 h): 989 nM

IC50 [1]: 0.997 nM
[Aurora A IC50 (nM)]/[PLK4 IC50 (nM)] [3]: 2006.018
[Aurora B IC50 (nM)]/[PLK4 IC50 (nM)] [4]: 405.2156
SMILES: COc1ccc2c(c1)[C@]1(C[C@H]1c1ccc3c(Nc4nc(C)nc(N5CC(O)C5)c4Cl)n[nH]c3c1)C(=O)N2 [Example 72, (1R,2S)-2-(3-{[5-chloro-6-(3-hydroxyazetidin-1-yl)-2-methylpyrimidin-4-yl]amino)-1H-indazol-6-yl)-5′-methoxyspiro[cyclopropane-1,3′-indol]-2′(1′H)-one]
IC50 ([2]; CHP-134, 120 h): 42.7 nM

IC50 [1]: 7.04 nM
[Aurora A IC50 (nM)]/[PLK4 IC50 (nM)] [3]: 3290.277
[Aurora B IC50 (nM)]/[PLK4 IC50 (nM)] [4]: 346.7708
SMILES: COc1ccc2c(c1)[C@]1(C[C@H]1c1ccc3c(Nc4nc(C)nc(N5CC(O)C5)c4OC)n[nH]c3c1)C(=O)N2 [Example 73, (1R,2S)-2-(3-{[6-(3-hydroxyazetidin-l-yl)-5-methoxy-2-methylpyrimidin-4-yl]amino}-1H-indazol-6-yl)-5′-methoxyspiro[cyclopropane-1,3′-indol]-2′(1′H)-one]
IC50 ([2]; CHP-134, 120 h): 10000 nM

IC50 [1]: 0.35 nM
[Aurora A IC50 (nM)]/[PLK4 IC50 (nM)] [3]: 5660
[Aurora B IC50 (nM)]/[PLK4 IC50 (nM)] [4]: 1778.857
SMILES: COc1ccc2c(c1)[C@]1(C[C@H]1c1ccc3c(Nc4nc(C(C)C)nc(N5CCS(=O)(=O)CC5)c4Cl)n[nH]c3c1)C(=O)N2 [Example 78, (1R,2S)-2-(3-((5-chloro-6-(1,1-dioxidothiomorpholino)-2-isopropylpyrimidin4-yl)amino)-1H-indazol-6-yl)-5′-methoxyspiro[cyclopropane-1,3′-indolin]-2′-one]
IC50 ([2]; CHP-134, 120 h): 61.4 nM

IC50 [1]: 2.37 nM
[Aurora A IC50 (nM)]/[PLK4 IC50 (nM)] [3]: 346.5116
[Aurora B IC50 (nM)]/[PLK4 IC50 (nM)] [4]: 54.12
SMILES: COc1ccc2c(c1)[C@]1(C[C@H]1c1ccc3c(Nc4nc(C5CC5)cnc4OC)n[nH]c3c1)C(=O)N2.O=C(O)C(F)(F)F [Example 80, (1R,2S)-2-{3-[(6-cyclopropyl-3-methorypyrazin-2-yl)amino]-1H-indazol-yl}-5′-metboxyspiro[cyclopropane-1,3′-indol]-2′(1′H)-one]
IC50 ([2]; CHP-134, 120 h): 294 nM
